Source: US9670197B2, “Small molecule modifiers of the Hec1-Nek2 interaction in G2/M” (The Regents of the University of California, priority 2013, dated 2017)

Legend:
U2OS = assay: Cancer cell growth inhibition, U2OS osteosarcoma; type: cell-based; conditions: Homo sapiens, Table 2, Osteosarcoma, read-out: cancer cell growth suppression
Description: (§1) Cell lines and establishment of stable cell lines. Human breast cancer cell lines MDA-MB-231 and MDA-MB-468, osteosarcoma line U20S, cervical adenocarcinoma line HeLa, and normal skin fibroblast Hs27 were maintained in DMEM medium (Invitrogen, Grand Island, N.Y.) supplemented 10% fetal bovine serum (FBS) and 1% penicillin-streptomycin. The leukemia cell line K562 and glioblastoma cell line T98G were grown in RPMI 1640 supplemented 10% FBS and 1% penicillin-streptomycin. Normal mammary gland epithelial cell line MCF10A was cultured in DMEM/F12 (50:50) plus 5% horse serum, 0.1 μg/mL cholera toxin, 10 μg/mL insulin, 0.5 μg/mL hydrocortisone, and 20 ng/mL epidermal growth factor. To establish MDA-MB-468 cells that stably expressed each individual GFP-Hec1 deletion construct described above, cells were infected with retrovirus expressing GFP-Hec1 WT, GFP-Hec1 W395A and GFP-Hec1 WLK/AAA, and were selected with 2 μg/ml puromycin.

T98G = assay: Cancer cell growth inhibition, T98G glioblastoma; type: cell-based; conditions: Homo sapiens, Table 2, Glioblastoma, read-out: cancer cell growth suppression
Description: as §1

[1] = tested on: MDA-MB-468 breast cancer cells tumor xenografts; assay: Breast tumor xenograft model; type: in vivo, athymic nude mice; conditions: versus vehicle; for tumor growth rate: thrice-weekly i.p., 10 or 50 mg/kg INH41, 5 or 20 mg/kg INH154, 6.5 weeks; for percentage of proliferating tumor cells (BrdU staining) / phosphorylation of Hec1 at S165 in tumors: tumors harvested one week after last injection
Excerpt: INH inhibition of breast tumor growth in xenograft model. We performed in vivo xenograft mouse experiments to examine the efficacy of INHs in accordance with guidelines and protocols of the University of California at Irvine Animal Research Committee. MDA-MB-468 breast cancer cells (2×10^6) were inoculated into mammary fat pads of 6-8 week old athymic nude mice mice (nu/nu; Harlan Sprague-Dawley Inc., Indianapolis, Ind.) to form tumor xenografts. […] Administration of control and INH treatments was carried out for 6.5 weeks and tumor sizes were measured. Mice body weights and tumor sizes were measured twice weekly. Tumor volume was calculated as (length×width^2)/2 (in mm), and data were presented as mean tumor volume±SEM.
One week after the last injections were administered, mice were sacrificed and their tumors were harvested for immunohistochemistry analysis. […] Error bars represent SE (n=4) in FIGS. 2C and 2D.
Immunohistochemistry analysis was conducted as follows. Paraffin-embedded tumor sections (5 μm) were incubated with primary antibody, counterstained with hematoxylin, and detected using a LSAB™ kit (DakoCytomation) according to the manufacturer's instructions. BrdU antibody was purchased from GeneTex, Irvine, Calif. and Hec1 pS165 antibody was prepared as described in Wei et al. Phosphorylation of the Ndc80 complex protein, HEC1, by Nek2 kinase modulates chromosome alignment and signaling of the spindle assembly checkpoint. Molecular biology of the cell 22, 3584-3594 (2011), hereby incorporated by reference in its entirety.

HeLa cells = assay: Apoptosis assay, flow cytometry with Annexin-V staining; type: cell-based, human; conditions: after 48 hours, DMSO 1.8%
Description: INH-triggered mitotic catastrophe. […] Error bars represent SE, n=>200 per sample in FIG. 3A. […] Error bars represent SE n=200 in FIG. 3B. Over time, the accumulation of chromosomal and spindle abnormalities led to cell death.
The apoptosis assay was conducted as follows. 1×10^6 cells were collected and resuspended in 100 μl binding buffer (10 mM HEPES, pH 7.4; 140 mM NaCl; 2.5 mM CaCl2) after INH or control treatment for 48 hrs. To the collected cells was added 5 μl of Annexin V-FITC and 1 μl of propidium iodide (PI, […]). The cells were then gently vortexed and incubated for 15 minutes at room temperature in the dark. The samples were analyzed by flow cytometry after an additional 400 μl of binding buffer was added to each tube.

Nek2 = Nek2 protein level in treated HeLa cells, western blot; type: cell-based; conditions: dose series
Description: (§2) INH-induced Nek2 degradation; INH-inhibition of Hec1 phosphorylation by Nek2. […] To evaluate whether INH treatment affected cell cycle profile or Nek2 mRNA level, we performed FACS and real-time PCR analysis.
(§3) Protein extraction and western blot analysis. The protein extractions and western blot analyses of Examples 4-6 were conducted as follows. Cell extracts were prepared and equal amounts of protein were separated by SDS-PAGE (10% w/v gel) followed by electrophoretic transfer to PVDF membranes (Millipore, Billerica, Mass.). After blocking with 5% w/v powdered non-fat milk, the membrane was incubated with different antibodies for overnight at 4° C. and treated for 1 hr with horseradish peroxidase-conjugated goat anti-mouse IgG and goat anti-rabbit IgG antibodies (GeneTex, Irvine, Calif.). ECL detection of the horseradish peroxidase reaction was performed according to the manufacturer's instructions (Millipore, Billerica, Mass.). Protein signal was measured on a LAS 4000 mini Imaging System (Fujifilm, Valhalla, N.Y.).

Hec1 = target: T1, Hec1 (Homo sapiens, UniProt O14777); assay: Hec1 protein level in treated HeLa cells, western blot; type: cell-based; conditions: 1 μM, time course
T1 construct: expressed in transfected cells; host or cells: HeLa cells (extracts)
T1 sequence (O14777 1-642): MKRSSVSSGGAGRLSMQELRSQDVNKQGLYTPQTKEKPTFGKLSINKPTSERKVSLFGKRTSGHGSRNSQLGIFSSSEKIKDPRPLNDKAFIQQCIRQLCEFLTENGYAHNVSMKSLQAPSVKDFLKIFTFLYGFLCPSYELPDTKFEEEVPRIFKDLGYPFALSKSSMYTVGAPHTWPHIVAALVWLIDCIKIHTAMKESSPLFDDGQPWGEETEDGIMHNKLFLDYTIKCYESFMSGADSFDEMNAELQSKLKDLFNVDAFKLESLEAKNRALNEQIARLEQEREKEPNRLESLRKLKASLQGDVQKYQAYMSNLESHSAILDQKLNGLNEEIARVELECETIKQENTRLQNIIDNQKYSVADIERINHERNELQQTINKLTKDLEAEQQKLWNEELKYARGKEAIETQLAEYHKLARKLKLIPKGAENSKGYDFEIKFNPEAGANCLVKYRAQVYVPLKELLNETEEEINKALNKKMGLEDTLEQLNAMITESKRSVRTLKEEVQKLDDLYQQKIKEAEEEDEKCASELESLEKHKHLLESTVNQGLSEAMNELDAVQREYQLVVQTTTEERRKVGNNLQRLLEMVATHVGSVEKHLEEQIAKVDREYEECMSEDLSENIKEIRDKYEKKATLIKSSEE
Description: as §2, §3

Aurora A = Aurora A expression in treated HeLa cells, western blot; type: cell-based; conditions: dose series
Description: as §2, §3

cyclin B1 = assay: Cyclin B1 level in treated HeLa cells, western blot; type: cell-based; conditions: dose series
Description: as §2, §3

Compound | IC50 (U2OS) [µM] | IC50 (T98G) [µM] | tumor growth rate [1] | percentage of proliferating tumor cells (BrdU staining) [1] | phosphorylation of Hec1 at S165 in tumors [1] | percentage of apoptotic cells (HeLa cells) [%] | Nek2 degradation, dose dependence (Nek2) | change in Hec1 protein level (Hec1) | expression of Aurora A (Aurora A) | change in cyclin B1 (cyclin B1)
Cc1cc(C)c(-c2csc(C(=O)c3ccncc3)n2)c(C)c1 [INH41, (4-mesitylthiazol-2-yl)(pyridin-4-yl)methanone] | 0.63 | 0.86 | significantly slower | reduced | substantially reduced | 17.4 | degraded in a dose-dependent manner | little change | not affected | no significant change
Cc1cc(N2CCCCC2)cc(C)c1-c1csc(NC(=O)c2ccncc2)n1 [INH154, N-(4-(2,6-Dimethyl-4-(piperidin-1-yl)phenyl)thiazol-2-yl)isonicotinamide] | 0.11 | 0.14 | significantly slower | reduced | substantially reduced | 67.6 | degraded in a dose-dependent manner | little change | not affected | no significant change
